Values after ≈ are worked out from the molar mass of the structure shown.
System: PC-3 cells (human prostate cancer cell line)
Test: Cytotoxic activity, MTT cell viability assay against PC-3 cell line
Format: cell-based
Conditions: read-out: Cytotoxcity activity IC50
Description: Cytotoxic activity of L. adscendens aerial part fractions were tested in vitro using MTT cell viability assay as previously described. Briefly, in each well plate 100 µL of fresh culture RPMI 1640 medium without phenol red then 10 µL of the 12 mM MTT stock solution (5 mg of MTT in 1 mL of PBS) were added to each well. An 85 µL aliquot of the incubated media was replaced by 50 µL of DMSO and incubated at 37 °C for 10 min. The optical density was measured at 590 nm with the microplate reader to determine the number of viable cells and the percentage of viability was calculated as the percentage of cell survival was calculated as follows: Surviving fraction=O.D.treated cells/O.D.control cells∗100

## COc1cccc2c1C(=O)c1c(O)c3c(c(O)c1C2=O)C[C@@](O)(C(=O)CO)C[C@@H]3O[C@H]1C[C@H](N)[C@H](O)[C@H](C)O1 [Doxorubicin]
  IC50: 34.9 ± 5.21 µg/mL (≈ 64.2 µM)

— publication PMC9737734, “Phytochemical investigation of Ludwigia adscendens subsp. diffusa aerial parts in context of its biological activity” (BMC Chemistry, 2022)
